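At the GI50, growth is halved. Definition used: TGI = concentration required for complete inhibition of growth.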
Tests used:
Experiment in all cases: NCI tumour cell line growth inhibition, 384-well format
786-0 renal = tested on: 786-0 renal
A498 renal = tested on: A498 renal
A549 NSCLC = tested on: A549 NSCLC
ACHN renal = tested on: ACHN renal
BT-549 breast = tested on: BT-549 breast
CAKI-1 renal = tested on: CAKI-1 renal
CCRF-CEM leukemia = tested on: CCRF-CEM leukemia
COLO 205 colon = tested on: COLO 205 colon
DU-145 prostate = tested on: DU-145 prostate
EKVX NSCLC = tested on: EKVX NSCLC
HCC-2998 colon = tested on: HCC-2998 colon
HCT-116 colon = tested on: HCT-116 colon
HCT-15 colon = tested on: HCT-15 colon
HL-60(TB) leukemia = tested on: HL-60(TB) leukemia
HOP-62 NSCLC = tested on: HOP-62 NSCLC
HOP-92 NSCLC = tested on: HOP-92 NSCLC
HS 578T breast = tested on: HS 578T breast
HT29 colon = tested on: HT29 colon
IGROV1 ovarian = tested on: IGROV1 ovarian
K-562 leukemia = tested on: K-562 leukemia
KM12 colon = tested on: KM12 colon
LOX IMVI melanoma = tested on: LOX IMVI melanoma
M14 melanoma = tested on: M14 melanoma
MALME-3M melanoma = tested on: MALME-3M melanoma
MCF7 breast = tested on: MCF7 breast
MDA-MB-231 breast = tested on: MDA-MB-231 breast
MDA-MB-435 melanoma = tested on: MDA-MB-435 melanoma
MDA-MB-468 breast = tested on: MDA-MB-468 breast
MOLT-4 leukemia = tested on: MOLT-4 leukemia
NCI-H226 lung = tested on: NCI-H226 lung
NCI-H23 lung = tested on: NCI-H23 lung
NCI-H322M lung = tested on: NCI-H322M lung
NCI-H460 NSCLC = tested on: NCI-H460 NSCLC
NCI-H522 lung = tested on: NCI-H522 lung
NCI/ADR-RES ovarian = tested on: NCI/ADR-RES ovarian
OVCAR-3 ovarian = tested on: OVCAR-3 ovarian
OVCAR-4 ovarian = tested on: OVCAR-4 ovarian
OVCAR-5 ovarian = tested on: OVCAR-5 ovarian
OVCAR-8 ovarian = tested on: OVCAR-8 ovarian
PC-3 prostate = tested on: PC-3 prostate
RPMI-8226 leukemia = tested on: RPMI-8226 leukemia
RXF 393 renal = tested on: RXF 393 renal
SF-268 CNS = tested on: SF-268 CNS
SF-295 CNS = tested on: SF-295 CNS
SF-539 CNS = tested on: SF-539 CNS
SK-MEL-28 melanoma = tested on: SK-MEL-28 melanoma
SK-MEL-5 melanoma = tested on: SK-MEL-5 melanoma
SK-OV-3 ovarian = tested on: SK-OV-3 ovarian
SN12C renal = tested on: SN12C renal
SNB-19 CNS = tested on: SNB-19 CNS
SNB-75 CNS = tested on: SNB-75 CNS
SW-620 colon = tested on: SW-620 colon
T-47D breast = tested on: T-47D breast
TK-10 renal = tested on: TK-10 renal
U251 glioblastoma = tested on: U251 glioblastoma
UACC-257 melanoma = tested on: UACC-257 melanoma
UACC-62 melanoma = tested on: UACC-62 melanoma
UO-31 renal = tested on: UO-31 renal
SR leukemia = tested on: SR leukemia

SMILES: C[C@H]1COCCN1c1cc(C2(S(=O)(=O)C3CC3)CC2)nc(-c2ccc(NC(=S)NCCO)cc2)n1
- GI50 ([…]-0 renal): 50.8 nM
- TGI (786-0 renal): 12600 nM
- GI50 (A498 renal): < 10 nM
- TGI (A498 renal): 53.1 nM
- GI50 (A549 NSCLC): 28.9 nM
- TGI (A549 NSCLC): 1410 nM
- GI50 (ACHN renal): 55.1 nM
- TGI (ACHN renal): 11800 nM
- GI50 (BT-549 breast): 16 nM
- TGI (BT-549 breast): 121 nM
- GI50 (CAKI-1 renal): 17.8 nM
- TGI (CAKI-1 renal): 214 nM
- GI50 (CCRF-CEM leukemia): 20.6 nM
- TGI (CCRF-CEM leukemia): 1630 nM
- GI50 (COLO 205 colon): 19.6 nM
- TGI (COLO 205 colon): 3340 nM
- GI50 (DU-145 prostate): 59.1 nM
- TGI (DU-145 prostate): 18800 nM
- GI50 (EKVX NSCLC): 40.2 nM
- TGI (EKVX NSCLC): 1570 nM
- GI50 (HCC-2998 colon): 98.6 nM
- TGI (HCC-2998 colon): 18600 nM
- GI50 (HCT-116 colon): 119 nM
- TGI (HCT-116 colon): 16500 nM
- GI50 (HCT-15 colon): 126 nM
- TGI (HCT-15 colon): 86300 nM
- GI50 (HL-60(TB) leukemia): 618 nM
- TGI (HL-60(TB) leukemia): 15200 nM
- GI50 (HOP-62 NSCLC): 39.1 nM
- TGI (HOP-62 NSCLC): 540 nM
- GI50 (HOP-92 NSCLC): 25.7 nM
- TGI (HOP-92 NSCLC): 601 nM
- GI50 (HS 578T breast): < 10 nM
- TGI (HS 578T breast): 35.5 nM
- GI50 (HT29 colon): 79.3 nM
- TGI (HT29 colon): 15800 nM
- GI50 (IGROV1 ovarian): < 10 nM
- TGI (IGROV1 ovarian): 41.9 nM
- GI50 (K-562 leukemia): 41.6 nM
- TGI (K-562 leukemia): 16100 nM
- GI50 (KM12 colon): 27.8 nM
- TGI (KM12 colon): 17600 nM
- GI50 (LOX IMVI melanoma): 27.6 nM
- TGI (LOX IMVI melanoma): 640 nM
- GI50 (M14 melanoma): 20.7 nM
- TGI (M14 melanoma): 1830 nM
- GI50 (MALME-3M melanoma): < 10 nM
- TGI (MALME-3M melanoma): 84.3 nM
- GI50 (MCF7 breast): < 10 nM
- TGI (MCF7 breast): 5510 nM
- GI50 (MDA-MB-231 breast): 34.2 nM
- TGI (MDA-MB-231 breast): > 100000 nM
- GI50 (MDA-MB-435 melanoma): 41.5 nM
- TGI (MDA-MB-435 melanoma): 3460 nM
- GI50 (MDA-MB-468 breast): < 10 nM
- TGI (MDA-MB-468 breast): 31.9 nM
- GI50 (MOLT-4 leukemia): < 10 nM
- TGI (MOLT-4 leukemia): 1070 nM
- GI50 (NCI-H226 lung): 19.1 nM
- TGI (NCI-H226 lung): 101 nM
- GI50 (NCI-H23 lung): 83.1 nM
- TGI (NCI-H23 lung): 12500 nM
- GI50 (NCI-H322M lung): 27.4 nM
- TGI (NCI-H322M lung): 15500 nM
- GI50 (NCI-H460 NSCLC): < 10 nM
- TGI (NCI-H460 NSCLC): 11500 nM
- GI50 (NCI-H522 lung): < 10 nM
- TGI (NCI-H522 lung): 6640 nM
- GI50 (NCI/ADR-RES ovarian): 6720 nM
- TGI (NCI/ADR-RES ovarian): > 100000 nM
- GI50 (OVCAR-3 ovarian): 38 nM
- TGI (OVCAR-3 ovarian): 6600 nM
- GI50 (OVCAR-4 ovarian): 31.8 nM
- TGI (OVCAR-4 ovarian): 340 nM
- GI50 (OVCAR-5 ovarian): 51.8 nM
- TGI (OVCAR-5 ovarian): 7110 nM
- GI50 (OVCAR-8 ovarian): 53.4 nM
- TGI (OVCAR-8 ovarian): 12700 nM
- GI50 (PC-3 prostate): 16.7 nM
- TGI (PC-3 prostate): 4390 nM
- GI50 (RPMI-8226 leukemia): 12 nM
- TGI (RPMI-8226 leukemia): 85.3 nM
- GI50 (RXF 393 renal): 25.9 nM
- TGI (RXF 393 renal): 310 nM
- GI50 (SF-268 CNS): < 10 nM
- TGI (SF-268 CNS): 28.9 nM
- GI50 (SF-295 CNS): 34.4 nM
- TGI (SF-295 CNS): 335 nM
- GI50 (SF-539 CNS): 29.7 nM
- TGI (SF-539 CNS): 598 nM
- GI50 (SK-MEL-28 melanoma): 26.2 nM
- TGI (SK-MEL-28 melanoma): 564 nM
- GI50 (SK-MEL-5 melanoma): 11.8 nM
- TGI (SK-MEL-5 melanoma): 58.5 nM
- GI50 (SK-OV-3 ovarian): 20.1 nM
- TGI (SK-OV-3 ovarian): 626 nM
- GI50 (SN12C renal): 18.4 nM
- TGI (SN12C renal): 12200 nM
- GI50 (SNB-19 CNS): 100 nM
- TGI (SNB-19 CNS): 50200 nM
- GI50 (SNB-75 CNS): < 10 nM
- TGI (SNB-75 CNS): 50.5 nM
- GI50 (SW-620 colon): 130 nM
- TGI (SW-620 colon): 17800 nM
- GI50 (T-47D breast): < 10 nM
- TGI (T-47D breast): 17.9 nM
- GI50 (TK-10 renal): 92.6 nM
- TGI (TK-10 renal): 900 nM
- GI50 (U251 glioblastoma): 57.2 nM
- TGI (U251 glioblastoma): 14900 nM
- GI50 (UACC-257 melanoma): 46.3 nM
- TGI (UACC-257 melanoma): 827 nM
- GI50 (UACC-62 melanoma): 15 nM
- TGI (UACC-62 melanoma): 100 nM
- GI50 (UO-31 renal): 121 nM
- TGI (UO-31 renal): 14000 nM

SMILES: Cc1cc(OCCOCCC(F)(F)P(=O)(O)O)ccc1CCc1cnc2c(N)nc3cc(CCC(=O)O)ccc3c2c1
- GI50 (CCRF-CEM leukemia): 37700 nM
- TGI (CCRF-CEM leukemia): > 100000 nM
- GI50 (HL-60(TB) leukemia): > 100000 nM
- TGI (HL-60(TB) leukemia): > 100000 nM
- GI50 (HOP-92 NSCLC): > 100000 nM
- TGI (HOP-92 NSCLC): > 100000 nM
- GI50 (K-562 leukemia): 34300 nM
- TGI (K-562 leukemia): > 100000 nM
- GI50 (MOLT-4 leukemia): 58100 nM
- TGI (MOLT-4 leukemia): > 100000 nM
- GI50 (NCI-H23 lung): 7120 nM
- GI50 (OVCAR-3 ovarian): > 100000 nM
- TGI (OVCAR-3 ovarian): > 100000 nM
- GI50 (PC-3 prostate): > 100000 nM
- TGI (PC-3 prostate): > 100000 nM
- GI50 (RPMI-8226 leukemia): 99700 nM
- TGI (RPMI-8226 leukemia): > 100000 nM
- GI50 (SN12C renal): > 100000 nM
- TGI (SN12C renal): > 100000 nM
- GI50 (SNB-19 CNS): > 100000 nM
- TGI (SNB-19 CNS): > 100000 nM
- GI50 (SR leukemia): 9350 nM
- TGI (SR leukemia): 29300 nM
